Data on four compounds can be found in patent US12637719B2, “Panel of ER regulated genes for use in monitoring endocrine therapy in breast cancer” (Sanofi, priority 2020, dated 2026).

Entries after “also recorded” stand apart in the source; their conditions may differ.

In test [1] the test system is HCC1428-LTED cells. Briefly: Global mRNA expression profile similarity between SERDs (1022 differentially expressed genes, Pearson correlation). As to conditions: 24 hours post treatment, 1022 transcripts, FIG. 1A, FIG. 3. It counts as cell-based. As for the experimental part: An RNA-seq library of 96 SERD RNA samples was prepared using a kit from NuGen Ovation® Universal RNA-Seq System Method (Illumina® Platforms) conforming to the manufacturer's protocol. The 50 bp rapid single-read flow cell was used to sequence the library on the Illumina HiSeq 2500 in the rapid mode. […] TPM was calculated as calculated measured as an expression unit and then quantile-normalized and log 2-transformed. […] ER-regulated genes were identified using two comparisons. First, genes were identified that were modulated by one or more SERM or SERD compounds in Table 1 and modulated in the opposite direction by estradiol ([log 2 FC]>2 and FDR<0.05 vs. DMSO control). To identify genes that are differentially expressed between SERD compound treatment and dimethyl sulfoxide (DMSO; control) treatment groups, a two-factor (treatment and dose) analysis of variance (ANOVA) model was used at respective dose and time points. The treatment factor was fixed, with seven levels: six SERD compounds and the DMSO control. The dose factor was also fixed, with two levels: low and high. All samples were treated at 24h. Post hoc contrast analyses were performed at each dose and time level, between each SERD compound treatment and the DMSO control. […] This analysis was performed using Array Studio (Qiagen). […] Expression profile similarity between compounds was assessed by Pearson correlation on the differentially expressed genes.
(§1) To evaluate the ER modulation by amcenestrant and other SERDs, we treated HCC1428-LTED (long term estrogen deprived) breast cancer cell lines with SERD compounds at either 300 nM (high) or 30 nM (low) in 24 hours. To unmask the ER-intrinsic activity, we then evaluated gene expression after compound treatment in HCC1428-LTED cells, which is a cell line that is hormone-deprived. Changes in global mRNA expression were assessed 24 hours post treatment.

In test [2] the test system is ERα signaling in HCI013 PDX tumor model. Briefly: ER activity score (GSVA, 87-gene signature) in HCI013 PDX tumor model. It counts as in vivo, human. The conditions noted are these: 8 h after last administration; SAR439859 100 mg/kg QD, GDC0810 100 mg/kg QD; FIG. 4B. As for the experimental part:
FIGS. 4A-B. Evaluation of target gene modulation in ERα ligands in an endocrine therapy-resistant tumor model. […] Data represent mean and standard deviation for 3 replicates for CXCL12 gene expression. An ER Signature of 87 genes was that were modulated by estradiol and then blocked by SERM and SERD compounds was used to calculate the ER Activity Score and was assessed using gene set variation analysis (GSVA). Data represents the mean and deviation from the mean for each of the described treatments.
(§2) To assess the relative ER modulating activity of the compounds, a panel of ER regulated genes (87 genes, Table 3) was developed by transcriptional profiling of multiple cell lines to identify genes that were modulated by estradiol and then blocked by SERM and SERD. This panel of ER regulated genes can be used to measure ER modulation by SERMs and SERDs. An ER Activity Score was then assessed using gene set variation analysis (GSVA) on the ER Signature (BMC Bioinformatics. 2013; 14:7).
The ERα transcriptional activity was analyzed in the HCI013 model using the panel of genes corresponding to the ER gene signature derived from the in vitro cell line analysis as previously described.

Test [3] relates to ERα transcriptional activity in HCC1428-LTED cells. In words: ER activity score (GSVA on 87-gene ER signature, RNA-seq) in HCC1428-LTED cells. The format is cell-based. The conditions noted are these: for ER activity score / ERα transcriptional activity (GSVA on ER signature): 300 nM (high) or 30 nM (low), 24 hours, absence of exogenous estrogen, FIG. 1B. As for the experimental part: The term “ER activity score,” as used herein, refers to a score obtained by using a computational method such as GSVA (Hanzelmann et al., GSVA: gene set variation analysis for microarray and RNA-seq data, in BMC Bioinformatics, 2013; 14:7, incorporated herein by reference in its entirety for its description of calculating scores using the GSVA method) on a gene expression data set obtained from a biological sample. An E2-induced score and an E2-suppressed score are calculated individually. […] The ER activity score is computed as follows: ER Activity Score=ER-induced score−E2-suppressed score.
An RNA-seq library of 96 SERD RNA samples was prepared using a kit from NuGen Ovation® Universal RNA-Seq System Method (Illumina® Platforms) conforming to the manufacturer's protocol. The 50 bp rapid single-read flow cell was used to sequence the library on the Illumina HiSeq 2500 in the rapid mode. […] TPM was calculated as calculated measured as an expression unit and then quantile-normalized and log 2-transformed. […] ER-regulated genes were identified using two comparisons. First, genes were identified that were modulated by one or more SERM or SERD compounds in Table 1 and modulated in the opposite direction by estradiol ([log 2 FC]>2 and FDR<0.05 vs. DMSO control). To identify genes that are differentially expressed between SERD compound treatment and dimethyl sulfoxide (DMSO; control) treatment groups, a two-factor (treatment and dose) analysis of variance (ANOVA) model was used at respective dose and time points. The treatment factor was fixed, with seven levels: six SERD compounds and the DMSO control. The dose factor was also fixed, with two levels: low and high. All samples were treated at 24h. Post hoc contrast analyses were performed at each dose and time level, between each SERD compound treatment and the DMSO control. […] This analysis was performed using Array Studio (Qiagen). The panel of 1022 genes identified as differentially expressed in at least one compound-versus-DMSO comparison were used for hierarchical clustering of compound treatment data normalized to DMSO control at respective dose and time points. Complete-linkage clustering was performed based on Pearson correlation coefficients. Expression profile similarity between compounds was assessed by Pearson correlation on the differentially expressed genes.
as §1, §2

Test [4] deals with ERα target genes CXCL12 and BCAS1. In words: RT-qPCR of ERα target genes CXCL12 and Bcas1 in HCC1428-LTED cells. The format is cell-based. As to conditions: for expression of CXCL12 by RT-qPCR: FIG. 1C; for expression of Bcas1 by RT-qPCR: FIG. 1D. As to the method:
RNA was extracted using the RNeasy kit (Qiagen) per the manufacturers instruction, quantified by NanoDrop 8000 (ThermoScientific) and reverse-transcribed with cDNA archive kit (Applied Biosystems). Taqman gene expression assays (Applied Biosystems) were used to quantify PGR (Hs00172183_m1), Bcas 1 (Hs00952822_m1), CXCL12 (Hs03676656_mH), BLNK1(Hs00929914_m1), IL20 (Hs00218888_m1) and the house-keeping genes PGK (Hs00391480_m1) and GAPDH (Hs99999905 ml) The relative quantities were determined using ΔΔ threshold cycle (ΔΔCt), according to the manufacturer's instructions (Applied Biosystems).
as §1
Findings were confirmed by measuring the expression of two well-validated ER target genes, CXCL12 and BCAS1, by RT-qPCR. Gene expression analysis provided further confirmation of the differential response of these molecules on well-validated ERα target genes (Elife. 2016; 5, Endocr Relat Cancer. 2015; 22(5):713-24).
Background: Quantitative PCR measures a nucleic acid by following its amplification.

Test [5] relates to ER pathway. Briefly: ER activation score by GSVA (RNA-seq) in paired tumor biopsies, Phase 1/2 study. It counts as in vivo, human.
Test [6] relates to ERα target genes PGR and CXCL12 in HCI013 tumors. Briefly: RT-qPCR of PGR and CXCL12 in HCI013 PDX tumors. It counts as in vivo, human. As for the experimental part:
FIG. 2. […] For FIG. 2 *P<0.05; denotes significance compared to vehicle treated group at end of study using unpaired t test. FIGS. 4A-B. Evaluation of target gene modulation in ERα ligands in an endocrine therapy-resistant tumor model. […] Data represent mean and standard deviation for 3 replicates for CXCL12 gene expression. An ER Signature of 87 genes was that were modulated by estradiol and then blocked by SERM and SERD compounds was used to calculate the ER Activity Score and was assessed using gene set variation analysis (GSVA). Data represents the mean and deviation from the mean for each of the described treatments. RNA was extracted using the RNeasy kit (Qiagen) per the manufacturers instruction, quantified by NanoDrop 8000 (ThermoScientific) and reverse-transcribed with cDNA archive kit (Applied Biosystems). Taqman gene expression assays (Applied Biosystems) were used to quantify PGR (Hs00172183_m1), Bcas 1 (Hs00952822_m1), CXCL12 (Hs03676656_mH), BLNK1(Hs00929914_m1), IL20 (Hs00218888_m1) and the house-keeping genes PGK (Hs00391480_m1) and GAPDH (Hs99999905 ml) The relative quantities were determined using ΔΔ threshold cycle (ΔΔCt), according to the manufacturer's instructions (Applied Biosystems).

Test [7] has as its system Ki67. In words: IHC Ki67 protein expression (percent positive tumor cells) in paired tumor biopsies, Phase 1/2 study. The format is in vivo, human. The conditions noted are these: screening to Cycle 2, Day 28; 400 mg PO QD; n=7; range −30% to +30%; FIG. 6C. As for the experimental part:
Staining was evaluated in tumor cells only. For ER and PgR expression, H-scores were calculated.

With `CC/C(=C(/c1ccc(/C=C/C(=O)O)cc1)c1ccc2[nH]ncc2c1)c1ccc(F)cc1Cl` [GDC-0810], the “correlation of induced expression profile to that of fulvestrant” value (shortened to “correlation”) in test [1] is “only weakly correlated”. Moreover, the “ERα transcriptional activity (ER activity score) in HCI013 model” value in test [2] is reported as “suppressive activity”. For the same compound, the “ER activity score / ERα transcriptional activity (GSVA on ER signature)” value in test [3] is “only partially reduced; also recorded: only partially inhibited”. In test [4], the “expression of CXCL12 by RT-qPCR” value is recorded as “failed to elicit any significant change” and the “expression of Bcas1 by RT-qPCR” value is reported as “failed to elicit any significant change”.

Take `C[C@@H]1Cc2c([nH]c3ccccc23)[C@@H](c2c(F)cc(/C=C/C(=O)O)cc2F)N1CC(C)(C)F` [AZD9496]: the “correlation” value in test [1] is “only weakly correlated”. In addition, the “ER activity score / ERα transcriptional activity (GSVA on ER signature)” value in test [3] was “only partially reduced; also recorded: only partially inhibited”. In test [4], the “expression of CXCL12 by RT-qPCR” value was “failed to elicit any significant change” and the “expression of Bcas1 by RT-qPCR” value was “failed to elicit any significant change”.

In the case of `C[C@]12CC[C@@H]3c4ccc(O)cc4C[C@@H](CCCCCCCCC[S+]([O-])CCCC(F)(F)C(F)(F)F)[C@H]3[C@@H]1CC[C@@H]2O` (stereo partly drawn) [Fulvestrant], in test [3], the “ER activity score / ERα transcriptional activity (GSVA on ER signature)” value is “deep inhibition” and the “modulation of ERα intrinsic activity in the absence of E2 (inverse agonist activity)” value is reported as “profound modulation”. Besides, in test [3] (listed as fulvestrant), the “ER activity score / ERα transcriptional activity (GSVA on ER signature)” value is “strongly reduced”.

`O=C(O)c1ccc2c(c1)CCCC(c1ccc(Cl)cc1Cl)=C2c1ccc(O[C@H]2CCN(CCCF)C2)cc1` [SAR439859, 6-(2,4-dichlorophenyl)-5-[4-[(3S)-1-(3-fluoropropyl)pyrrolidin-3-yl]oxyphenyl]-8,9-dihydro-7H-benzo[7]annulene-2-carboxylic acid]: in test [5] (all patients with paired biopsies, n=5, range −1.1 to +0.4, FIG. 6D), the “ER activation score by GSVA, median change from screening” value is −0.4. The “ER activation score by GSVA, median change from screening, patients who showed clinical benefit” value in test [5] (patients with clinical benefit, n=4, range −1.1 to 0) was −0.6. Further, the “ER activation score by GSVA, change from screening, patient with no clinical benefit” value in test [5] (the one patient with no clinical benefit) is reported as “+0.4”. In addition, in test [6] (8 h after last administration, SAR439859 100 mg/kg QD compared to fulvestrant 200 mg/kg Q2W or GDC0810 100 mg/kg QD, FIG. 4A), the “CXCL12 gene expression in HCI013 tumors (RT-qPCR)” value was “stronger inhibition”. Besides, in test [6] (8 hours after last administration, SAR439859 100 mg/kg compared to fulvestrant 200 mg/kg or GDC0810 100 mg/kg, FIG. 2), the “PGR gene expression in HCI013 tumors (RT-qPCR)” value is listed as “stronger inhibition”. Also, the “correlation” value in test [1] is listed as “closely correlated”. Besides, the “ERα transcriptional activity (ER activity score) in HCI013 model” value in test [2] is on record as “more marked ERα suppression”. In test [3], the “ER activity score / ERα transcriptional activity (GSVA on ER signature)” value is on record as “strongly reduced; also recorded: deep inhibition” and the “modulation of ERα intrinsic activity in the absence of E2 (inverse agonist activity)” value is recorded as “profound modulation”. Moreover, in test [7], the “median change from screening in percentage of Ki67 positive cells” value is −8%. In test [4], the “expression of CXCL12 by RT-qPCR” value is on record as “inhibited expression” and the “expression of Bcas1 by RT-qPCR” value is given as “induced expression”.
